Source: US10639371B2, “Thermoresponsive bioconjugates and their controlled delivery of cargo” (University of Delaware, priority 2015, dated 2020)
Where no end group is shown, it is not given here.

Assays:
[1] = Circular dichroic spectroscopy (CD), thermal unfolding of CLP triple helix; type: physicochemical; conditions: first derivative of CD melting curve
Experimental: (§1) The ability of the CLP domain to form stable triple helix at physiological temperature while conjugated to the ELP was probed via circular dichroic spectroscopy (CD). The CD spectra of ELP-CLP at temperatures ranging from 5° C. to 80° C. […] Presumably, the collapse of the ELP domain at the elevated temperatures anchors the CLP and stabilizes it against unfolding, similar to our previously reported results for a polymer-conjugated CLP. The refolding of the CLP triple helix (FIGS. 2c and 2d) is likewise accelerated by the ELP anchoring of the CLP, owing to the increase in the local concentration of the CLP strands.

[2] = CD refolding of CLP triple helix after quenching from 80° C. to 5° C.; type: physicochemical
Experimental: as §1

[3] = Dynamic light scattering (DLS) of assemblies upon heating; type: physicochemical; conditions: ELP alone, 1 mg/mL in water
Experimental: (A) ELP at 1 mg/mL in water; (B) ELP and CLP physical mixture at 0.5 mg/mL each in water.
The anticipated assembly of ELP-CLP nanostructures at physiologically relevant temperatures was confirmed via dynamic light scattering (DLS) (FIG. 3). In contrast to our expectations that nanoparticle formation would be triggered at near physiological temperature, however, the conjugates formed structures with hydrodynamic diameters (Dh) that ranged from approximately 50 to 200 nm at all temperatures between 4° C. and 65° C. (FIG. 3a), with a Dh of approximately 160 nm at 37° C. (FIG. 3b).
The anchoring of the ELP by the noncovalent formation of CLP triple helix, however, should offer unique and as yet unreported opportunities to reversibly modulate the transition temperatures of the ELP domain and to thus confer dual thermoresponsiveness to the conjugates. Indeed, after an initial increase in the Dh of the ELP-CLP nanoparticles with heating to 50° C. (FIG. 3), Dh begins to decrease once the sample is heated above this temperature, which is also approximately the melting temperature of the CLP (FIG. 2b). With additional heating to 80° C., the CLP unfolds completely (FIG. 2b), and the nanoparticles become fully solubilized as monomers with an average Dh of only 5.6 nm (FIG. 3b). […]

[4] = system: TNF-α production from RAW264.7 macrophages; experiment: TNF-α ELISA, RAW264.7 macrophages (inflammation response); type: cell-based
Experimental: Blank PBS was used as a negative control and lipopolysaccharide (LPS, 50 ng/mL) was used as a positive control; and (B) TNF-α production from RAW264.7 macrophages, treated with ELP-CLP nanoparticles at various concentrations. Blank PBS was used as a negative control and lipopolysaccharide (LPS, 50 ng/mL) was used as a positive control.
(B) Viability of NIH-3T3 fibroblasts (8,000 cells/cm^2 in DMEM/10% FBS); live/dead overlay shown. (C) TNF-α production from RAW264.7 murine macrophage-like cell culture (15,000 cells/cm^2 in DMEM/10% FBS) in the presence of various concentrations of CLP-ELP nanoparticles.
RAW264.7 murine macrophages were purchased from American Type Culture Collection (ATCC) and were cultured in DMEM (Sigma Aldrich) supplemented with 10% heat-inactivated fetal bovine serum (MediaTech), 10 mM HEPES (GIBCO), 55 μM β-mercaptoethanol (GIBCO), and 1% antibiotic/antimycotic (GIBCO) at 37° C. with 5% CO2. […] Cell metabolism post-treatment was assayed using PrestoBlue Viability Assay (Life Technologies), which provides a fluorescence measurement of the overall reductive capability of the cells, according to the manufacturer's instructions. […] After 2 h of incubation at 37° C., the medium was collected and analyzed using a PerkinElmer VICTOR3 1420 Multilabel Plate Reader (PerkinElmer, Waltham, Mass.) at excitation/emission wavelengths of 570 nm/615 nm. […]

Which “Tm (unfolding of CLP triple helix)” value [1] does the source give for (GPO)4GFOGER(GPO)4GG [CLP] here?
Its value is “ca. 50 °C”.

What about the “rate constant of triple helix refolding reaction” value [2] of the same substance?
Its value is 1.14×10^7 M^−2·s^−1.

For “(VPGFG)6 (VPGFGVPGFGVPGFGVPGFGVPGFGVPGFG; also: alkyne functionalization, site not given here) [ELP]”, which “inverse transition / aggregation upon heating” value [3] is on record?
Its value is “does not undergo a transition”.

For lipopolysaccharide [LPS], which TNF-α expression ([4]; FIG. 18C, 15,000 cells/cm^2, various concentrations) is on record?
The TNF-α expression was “elevated TNF-α expression”.

What about the TNF-α expression ([4]; nanoparticles 50-1000 μg/mL, LPS 50 ng/mL, 8 h) of the same substance?
Its TNF-α expression is “high levels of TNF-α expression”.
